Laboratory results published in the supplement of paper PMC11368000.

What was measured:
Conditions in all cases: exposure time: 90 min
[1] = system: 11235 (donor line of iPSC-derived cardiomyocytes); assay: POD (EC05) for increase in beat frequency (positive chronotrope) vs vehicle; higher = less potent (higher point of departure)
Experimental: (§1)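 Human iPSC-derived cardiomyocytes from 16 donors were exposed for 90 min at 37 °C to each PFAS at 0.1, 1, 10 and 100 µM in 0.5% DMSO, 384-well plates. Kinetic Ca2+ flux (FLIPR) and Hoechst nuclei counts were normalised to vehicle wells and fitted with a hierarchical Bayesian Hill model to give donor-specific PODs: EC05 for beat-rate increase or decrease and for decay-to-rise ratio increase (QT proxy), EC95 for peak-frequency loss (asystole), EC10 for total cell number loss. 0.03 µM is the lower bound.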

[2] = system: 1518 (donor line of iPSC-derived cardiomyocytes); assay: as above
Experimental: as §1

[3] = system: 1392 (donor line of iPSC-derived cardiomyocytes); assay: as above
Experimental: as §1

[4] = system: 30171 (donor line of iPSC-derived cardiomyocytes); assay: as above
Experimental: as §1

[5] = system: 1309 (donor line of iPSC-derived cardiomyocytes); assay: as above
Experimental: as §1

[6] = system: 20032 (donor line of iPSC-derived cardiomyocytes); assay: as above
Experimental: as §1

[7] = system: 1516 (donor line of iPSC-derived cardiomyocytes); assay: as above
Experimental: as §1

[8] = system: 1434 (donor line of iPSC-derived cardiomyocytes); assay: as above
Experimental: as §1

[9] = system: 1118 (donor line of iPSC-derived cardiomyocytes); assay: as above
Experimental: as §1

[10] = system: 1368 (donor line of iPSC-derived cardiomyocytes); assay: as above
Experimental: as §1

[11] = system: 1565 (donor line of iPSC-derived cardiomyocytes); assay: as above
Experimental: as §1

[12] = system: 20084 (donor line of iPSC-derived cardiomyocytes); assay: as above
Experimental: as §1

[13] = system: 1083 (donor line of iPSC-derived cardiomyocytes); assay: as above
Experimental: as §1

[14] = system: 1535 (donor line of iPSC-derived cardiomyocytes); assay: as above
Experimental: as §1

[15] = system: 1531 (donor line of iPSC-derived cardiomyocytes); assay: as above
Experimental: as §1

[16] = system: 1518; assay: POD (EC05) for decrease in beat frequency (negative chronotrope) vs vehicle; higher = less potent (higher point of departure)
Experimental: as §1

[17] = system: 1392; assay: as above
Experimental: as §1

[18] = system: 1516; assay: as above
Experimental: as §1

[19] = system: 1565; assay: as above
Experimental: as §1

[20] = system: 1535; assay: as above
Experimental: as §1

| Structure (SMILES) | POD vs vehicle [1] [µM] | POD vs vehicle [2] [µM] | POD vs vehicle [3] [µM] | POD vs vehicle [4] [µM] | POD vs vehicle [5] [µM] | POD vs vehicle [6] [µM] | POD vs vehicle [7] [µM] | POD vs vehicle [8] [µM] | POD vs vehicle [9] [µM] | POD vs vehicle [10] [µM] | POD vs vehicle [11] [µM] | POD vs vehicle [12] [µM] | POD vs vehicle [13] [µM] | POD vs vehicle [14] [µM] | POD vs vehicle [15] [µM] | POD vs vehicle [16] [µM] | POD vs vehicle [17] [µM] | POD vs vehicle [18] [µM] | POD vs vehicle [19] [µM] | POD vs vehicle [20] [µM] |
| --- | --- | --- | --- | --- | --- | --- | --- | --- | --- | --- | --- | --- | --- | --- | --- | --- | --- | --- | --- | --- |
| CC(O)C(F)(F)C(F)(F)F (stereo unspecified) [1-Pentafluoroethylethanol] | > 100 | > 100 | > 100 | > 100 | > 100 | > 100 | > 100 | > 100 | > 100 | > 100 | > 100 | > 100 | > 100 | > 100 | > 100 | > 100 | > 100 | > 100 | > 100 | > 100 |
| O=C(O)C(F)(F)C(F)(F)C(F)(F)C(F)(F)C(F)(F)C(F)(F)C(F)(F)C(F)(F)C(F)(F)F [Perfluorodecanoic_acid] | > 100 | > 100 | > 100 | > 100 | > 100 | > 100 | > 100 | > 100 | > 100 | > 100 | > 100 | > 100 | > 100 | > 100 | > 100 | > 100 | 27.5 | 14.9 | > 100 | 66.5 |
| O=C(O)C(F)(F)C(F)(F)C(F)F [2,2,3,3,4,4-Hexafluorobutanoic_acid] | > 100 | > 100 | > 100 | > 100 | > 100 | > 100 | > 100 | > 100 | > 100 | > 100 | > 100 | > 100 | – | > 100 | > 100 | > 100 | > 100 | > 100 | > 100 | > 100 |
| NC(=O)C(F)(F)C(F)(F)C(F)(F)C(F)F | > 100 | > 100 | > 100 | > 100 | > 100 | > 100 | > 100 | > 100 | > 100 | > 100 | > 100 | > 100 | > 100 | > 100 | > 100 | > 100 | > 100 | > 100 | > 100 | > 100 |
| O=C(O)C(F)(F)C(F)(F)C(F)(F)C(F)(F)C(F)(F)C(F)(F)C(F)(F)C(F)(F)Cl [9-Chloro-perfluorononanoic_acid] | > 100 | > 100 | > 100 | > 100 | > 100 | > 100 | > 100 | > 100 | > 100 | > 100 | > 100 | > 100 | > 100 | > 100 | > 100 | > 100 | > 100 | 14.9 | > 100 | 39.9 |
| O=P(O)(O)CCC(F)(F)C(F)(F)C(F)(F)C(F)(F)C(F)(F)C(F)(F)C(F)(F)C(F)(F)F [((Perfluorooctyl)ethyl)phosphonic_acid] | > 100 | > 100 | > 100 | > 100 | > 100 | > 100 | > 100 | > 100 | > 100 | > 100 | > 100 | > 100 | > 100 | > 100 | > 100 | > 100 | > 100 | > 100 | > 100 | > 100 |
| CN(CCO)S(=O)(=O)C(F)(F)C(F)(F)C(F)(F)C(F)(F)C(F)(F)C(F)(F)C(F)(F)C(F)(F)F [N-Methyl-N-(2-hydroxyethyl)perfluorooctanesulfonamide] | – | > 100 | > 100 | > 100 | > 100 | 0.199 | – | – | > 100 | > 100 | > 100 | > 100 | > 100 | > 100 | > 100 | > 100 | > 100 | > 100 | > 100 | > 100 |
| O=C(O)C(F)(F)C(F)(F)C(F)(F)C(F)(F)C(F)(F)C(F)(F)C(F)(F)C(F)(F)C(F)(F)C(F)(F)F [Perfluoroundecanoic_acid] | > 100 | > 100 | > 100 | > 100 | > 100 | > 100 | > 100 | > 100 | > 100 | > 100 | > 100 | > 100 | > 100 | > 100 | > 100 | 1.19 | > 100 | – | > 100 | > 100 |
| OCC(F)(F)OC(F)(F)C(F)(F)OC(F)(F)C(F)(F)OC(F)(F)F [Fluorinated_triethylene_glycol_monomethyl_ether] | > 100 | – | > 100 | – | > 100 | > 100 | – | > 100 | > 100 | > 100 | > 100 | > 100 | > 100 | > 100 | > 100 | > 100 | > 100 | > 100 | > 100 | > 100 |
| O=C([O-])C(F)(F)C(F)(F)C(F)(F)C(F)(F)C(F)(F)C(F)(F)C(F)(F)F.[NH4+] [Ammonium_perfluorooctanoate] | > 100 | > 100 | > 100 | > 100 | > 100 | > 100 | > 100 | > 100 | > 100 | > 100 | > 100 | > 100 | – | > 100 | > 100 | 87.3 | > 100 | 58.4 | > 100 | 43.5 |
